Literature values as cited in US4279898A, “In vivo inhibitors of cholesterol biosynthesis” (Research Foundation of the City University of New York, priority 1980, dated 1981).

System: 5-phosphomevalonate kinase
Settings: publications by the inventors

CC(O)(CCCP(=O)(O)O)CC(=O)O (stereo not shown) [5-carboxy-4-hydroxy-4-methylpentyl-1-phosphonic acid]
inhibition of 5-phosphomevalonate kinase: inhibition
